According to the NIST ThermoML archive (doi:10.1016/j.jct.2015.08.014):
Numbers after ± are expanded uncertainties.

Conditions: Liquid; for electrical conductivity: Alternating current cell with electrodes; for viscosity: Capillary tube (Ostwald / Ubbelohde) method; for mass density: Vibrating tube method

CCCC[N+]1(C)CCCC1.N#CN=C=[N-] [1-butyl-1-methylpyrrolidinium dicyanamide]
electrical conductivity [S/m], 100 kPa
Conditions | 273.15 K | 283.15 K | 293.15 K | 298.15 K | 303.15 K | 313.15 K | 323.15 K
Frequency=0.0005 MHz | 0.522 ± 0.005 | 0.786 ± 0.008 | 1.122 ± 0.011 | 1.315 ± 0.013 | 1.525 ± 0.015 | 1.99 ± 0.02 | 2.525 ± 0.025
Frequency=0.001 MHz | 0.522 ± 0.005 | 0.786 ± 0.008 | 1.122 ± 0.011 | 1.316 ± 0.013 | 1.526 ± 0.015 | 2 ± 0.02 | 2.526 ± 0.025
Frequency=0.0015 MHz | 0.522 ± 0.005 | 0.786 ± 0.008 | 1.123 ± 0.011 | 1.316 ± 0.013 | 1.526 ± 0.015 | 2 ± 0.02 | 2.527 ± 0.025
Frequency=0.002 MHz | 0.522 ± 0.005 | 0.786 ± 0.008 | 1.123 ± 0.011 | 1.316 ± 0.013 | 1.527 ± 0.015 | 2 ± 0.02 | 2.528 ± 0.025
Frequency=0.0025 MHz | 0.522 ± 0.005 | 0.786 ± 0.008 | 1.123 ± 0.011 | 1.317 ± 0.013 | 1.527 ± 0.015 | 2 ± 0.02 | 2.528 ± 0.025
Frequency=0.003 MHz | 0.522 ± 0.005 | 0.786 ± 0.008 | 1.123 ± 0.011 | 1.317 ± 0.013 | 1.527 ± 0.015 | 2 ± 0.02 | 2.528 ± 0.025
Frequency=0.00347222 MHz | 0.523 ± 0.005 | 0.786 ± 0.008 | 1.123 ± 0.011 | 1.317 ± 0.013 | 1.527 ± 0.015 | 2 ± 0.02 | 2.528 ± 0.025
Frequency=0.004 MHz | 0.523 ± 0.005 | 0.786 ± 0.008 | 1.123 ± 0.011 | 1.317 ± 0.013 | 1.527 ± 0.015 | 2 ± 0.02 | 2.529 ± 0.025
Frequency=0.00446429 MHz | 0.523 ± 0.005 | 0.786 ± 0.008 | 1.123 ± 0.011 | 1.317 ± 0.013 | 1.527 ± 0.015 | 2 ± 0.02 | 2.529 ± 0.025
Frequency=0.005 MHz | 0.523 ± 0.005 | 0.786 ± 0.008 | 1.123 ± 0.011 | 1.317 ± 0.013 | 1.527 ± 0.015 | 2 ± 0.02 | 2.529 ± 0.025
Frequency=0.005454 MHz | 0.523 ± 0.005 | 0.786 ± 0.008 | 1.123 ± 0.011 | 1.317 ± 0.013 | 1.527 ± 0.015 | 2 ± 0.02 | 2.529 ± 0.025
Frequency=0.006 MHz | 0.523 ± 0.005 | 0.786 ± 0.008 | 1.123 ± 0.011 | 1.317 ± 0.013 | 1.527 ± 0.015 | 2 ± 0.02 | 2.529 ± 0.025
Frequency=0.00652174 MHz | 0.523 ± 0.005 | 0.786 ± 0.008 | 1.123 ± 0.011 | 1.317 ± 0.013 | 1.527 ± 0.015 | 2 ± 0.02 | 2.529 ± 0.025
Frequency=0.00694444 MHz | 0.523 ± 0.005 | 0.786 ± 0.008 | 1.123 ± 0.011 | 1.317 ± 0.013 | 1.527 ± 0.015 | 2 ± 0.02 | 2.529 ± 0.025
Frequency=0.0075 MHz | 0.523 ± 0.005 | 0.786 ± 0.008 | 1.123 ± 0.011 | 1.318 ± 0.013 | 1.527 ± 0.015 | 2 ± 0.02 | 2.529 ± 0.025
Frequency=0.008 MHz | 0.523 ± 0.005 | 0.786 ± 0.008 | 1.123 ± 0.011 | 1.318 ± 0.013 | 1.527 ± 0.015 | 2 ± 0.02 | 2.529 ± 0.025
Frequency=0.00857143 MHz | 0.523 ± 0.005 | 0.786 ± 0.008 | 1.123 ± 0.011 | 1.318 ± 0.013 | 1.527 ± 0.015 | 2 ± 0.02 | 2.529 ± 0.025
Frequency=0.00892857 MHz | 0.523 ± 0.005 | 0.786 ± 0.008 | 1.124 ± 0.011 | 1.318 ± 0.013 | 1.527 ± 0.015 | 2 ± 0.02 | 2.529 ± 0.025
Frequency=0.00961538 MHz | 0.523 ± 0.005 | 0.786 ± 0.008 | 1.124 ± 0.011 | 1.318 ± 0.013 | 1.527 ± 0.015 | 2 ± 0.02 | 2.529 ± 0.025
Frequency=0.01 MHz | 0.523 ± 0.005 | 0.786 ± 0.008 | 1.124 ± 0.011 | 1.318 ± 0.013 | 1.527 ± 0.015 | 2 ± 0.02 | 2.529 ± 0.025

101.33 kPa
Conditions | electrical conductivity [S/m] | mass density [kg/m3] | viscosity [mPa·s]
273.15 K | 0.523 ± 0.005 | 1027.69 ± 8.3 | 93.95 ± 2.3
278.15 K | 0.645 ± 0.007 | 1024.82 ± 8.2 | 74.27 ± 1.7
283.15 K | 0.786 ± 0.008 | 1021.96 ± 8.2 | 59.6 ± 1.4
288.15 K | 0.943 ± 0.009 | 1019.11 ± 8.2 | 48.6 ± 1.1
293.15 K | 1.123 ± 0.011 | 1016.28 ± 8.2 | 40.25 ± 0.91
298.15 K | 1.317 ± 0.013 | 1013.45 ± 8.1 | 33.71 ± 0.77
303.15 K | 1.527 ± 0.015 | 1010.64 ± 8.1 | 28.53 ± 0.65
308.15 K | 1.75 ± 0.018 | 1007.84 ± 8.1 | 24.53 ± 0.56
313.15 K | 2 ± 0.02 | 1005.06 ± 8.1 | 21.07 ± 0.48
318.15 K | 2.25 ± 0.023 | 1002.28 ± 8.1 | 18.37 ± 0.42
323.15 K | 2.529 ± 0.025 | 999.525 ± 8 | 16.15 ± 0.37
328.15 K | – | 996.781 ± 8 | –
333.15 K | – | 994.049 ± 8 | –
